# Tests used:
# [1] = Plasma pharmacokinetics of ARQ 501 (β-lapachone) after intravenous ARQ 761 (UHPLC-MS/MS, two-compartment model); type: in vivo, human; conditions: plasma ARQ 501 after ARQ 761 infusions
# Procedure: During the first and fourth infusions of study drug, serial blood samples for determination of plasma ARQ 501 levels were drawn at the following time points: pre-infusion, infusion start, 15 min, 30 min, 60 min, 120 min (for the 2-h infusion cohort), 15 min post-infusion, 1 h post-infusion, 3 h post-infusion, 5 h post-infusion, 24 h post-infusion, 48 h post-infusion, and 168 h post-infusion. ARQ 501 plasma concentrations were determined using an ultra-high-performance liquid chromatography tandem mass spectrometric analytical method. This method utilised a Nexera Series UHPLC system (Shimadzu Corporation, Kyoto, Japan), which was interfaced with a Sciex QTRAP 5500 mass spectrometer (Foster City, CA, USA).
# Sample preparation included a liquid–liquid extraction of ARQ 501 and the internal standard dihydrotanshone (IS) from plasma. Briefly, 100 µL of a 700 ng/mL solution of IS in methanol:acetonitrile (3:1) was added to a 2-mL Eppendorf tube and spun to dryness on a CentriVap benchtop vacuum concentrator (Labconco, Kansas City, USA). To the dried tube, 25-µL aliquots of plasma, 25-µL of blank plasma, and 200-µL de-ionised water were added and vortex mixed. To the resultant solution, a 1-mL aliquot of methyl tert-butyl ether:ethyl acetate (1:1) was added. The mixture was shaken for 10 min at 2500 rpm on a VWR shaker. Samples were then centrifuged for 10 min at 4000 rpm at 4.0 °C. […]
# [2] = parameters: method as in PMID 22532167; conditions: animal models; cited from earlier work
# [3] = cited from earlier work
structure (smiles),measurement,setting,value
"CC1(C)CCC2=C(O1)c1ccccc1C(=O)C2=O [ARQ 501, β-lapachone]","Accumulation, Dose 1 vs. Dose 4",[1],does not accumulate to any appreciable extent
same,Duration of methemoglobinaemia,[2],5 min
same,Predominant dose-limiting toxicity (DLT),[3],haemolytic anaemia
same,MTD,"[3]; earlier ARQ 501 compound, no reference given",390 mg/m^2
